Structures can show the parent of a compound that is named as a salt.
Columns and labels:
CB1 receptor [1] = target: T1, CB1 receptor (Mus musculus, UniProt P47746); experiment: Mouse electrically-stimulated isolated vas deferens bioassay (MVD); assay type: cell-based; conditions: decrease of electrically evoked twitch force; for inhibition at 1 µM: read-out: CB1 (MVD) % inh at 1.0 μM
T1 construct: Mouse vasa deferentia were dissected with capsular connective tissue intact and set up in 20 ml organ baths; from tissue; host or cells: mouse (Swiss white) isolated vas deferens
T1 sequence (P47746 whole entry): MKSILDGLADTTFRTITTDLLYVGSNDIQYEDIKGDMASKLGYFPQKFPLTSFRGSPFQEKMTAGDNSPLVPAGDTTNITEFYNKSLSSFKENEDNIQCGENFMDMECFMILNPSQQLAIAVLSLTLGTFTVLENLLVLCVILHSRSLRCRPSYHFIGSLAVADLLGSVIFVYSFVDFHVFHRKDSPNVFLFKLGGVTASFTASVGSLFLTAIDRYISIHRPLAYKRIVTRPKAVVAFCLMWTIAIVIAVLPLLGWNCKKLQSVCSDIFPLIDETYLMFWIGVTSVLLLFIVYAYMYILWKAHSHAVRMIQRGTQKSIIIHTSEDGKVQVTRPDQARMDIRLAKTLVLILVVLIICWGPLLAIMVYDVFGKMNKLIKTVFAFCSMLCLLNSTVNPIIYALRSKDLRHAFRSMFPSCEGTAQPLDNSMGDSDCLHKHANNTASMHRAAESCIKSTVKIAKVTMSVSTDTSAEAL
Description: Functional activity of the compounds was assayed using the mouse electrically-stimulated vas deferens bioassay, a measure of CB1 receptor function (24,25). […] CB2 functionality may be investigated using assays known to those skilled in the art; for example those described in U.S. Pat. No. 6,013,648.
Swiss white mice (35-40 g) were killed by exposure to 80% CO2 in O2 and exsanguination. Mouse vasa deferentia were dissected with capsular connective tissue intact and set up in 20 ml organ baths at 37° C. in Mg^2+-free physiological salt solution. The upper (epididymal) end was attached to an isometric force transducer (Grass FTO3C) and the lower (prostatic) end tied to a fixed support between two parallel platinum field electrodes (5 mm apart, 5 mm long). The tissue was initially stretched by 0.5 g force and allowed to equilibrate 10 min. The tissues were stimulated (Grass S88 stimulator) to contract using trains of electrical field stimulation of 3 pulses (4 Hz), 0.5 ms duration, 100 V (80% maximal voltage) every 20 s for 10 min. This electrical stimulation period was applied before and after both antagonist and agonist addition. Output from the transducer amplifier was recorded on a flat bed recorder (Gould BS 272, Cleveland, Ohio, U.S.A.). All drugs were dissolved in dimethyl sulfoxide (DMSO; Sigma, St Louis, Mo., U.S.A.) and allowed to equilibrate with the tissue for 30 min before the responses to field stimulation were assessed. Drug effects were measured as the percentage decrease of the pre-drug twitch force.

CB2 receptor = target: T2, CB2 receptor (Rattus norvegicus, UniProt Q9QZN9); experiment: Radioligand binding assay, rat spleen membranes
T2 sequence (Q9QZN9 1-343 limits assumed): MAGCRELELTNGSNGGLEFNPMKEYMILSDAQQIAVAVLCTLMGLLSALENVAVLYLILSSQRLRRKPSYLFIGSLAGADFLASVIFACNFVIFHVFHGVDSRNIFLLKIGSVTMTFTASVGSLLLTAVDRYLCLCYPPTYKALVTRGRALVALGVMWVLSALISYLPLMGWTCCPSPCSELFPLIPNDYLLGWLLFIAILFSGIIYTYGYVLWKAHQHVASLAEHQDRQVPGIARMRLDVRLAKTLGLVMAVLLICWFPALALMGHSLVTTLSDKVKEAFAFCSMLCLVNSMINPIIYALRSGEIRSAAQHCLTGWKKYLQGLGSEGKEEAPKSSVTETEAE
Description: (§1) The affinity of compounds at cannabinoid receptors is routinely assessed using ligand binding assays known to those skilled in the art. Radioligand binding assays were conducted using rat cerebellum or rat spleen. The cerebellum of the rat is known to express predominantly, if not exclusively, the CB1 receptor subtype (20,21). Thus, binding constants obtained from these studies are characterised by a single affinity value, as only one receptor type is labelled. […] In contrast, biphasic binding curves in the spleen characterised by two affinity constants represent the profile of compounds showing selectivity for one receptor subtype over another. In order to determine the order of selectivity, the high and low affinity values obtained for these compounds in the spleen binding assays were compared to the single affinity estimates obtained for the cerebellum (CB1) assays.
Sprague Dawley rats (200-300 g) were killed by gassing with 80% CO2 in O2 and decapitation and the spleen excised rapidly and placed in ice-cold Tris-HCl buffer (Tris 50 mM, MgCl2 3 mM, EGTA 0.2 mM, pH 7.4). The spleen was weighed and diced using a scalpel before homogenisation in 10 volumes of Tris-HCl buffer. The homogenate was then made up to 20 volumes and centrifuged (12,600 g, 5 min, 4° C.), the supernatant was retained and centrifuged (23,800 g, 20 min, 4° C.). The pellet was resuspended in 10 volumes of buffer and assayed for protein content using the method of Bradford (Bradford, 1976) with BSA as the standard. The homogenate was then recentrifuged and the final pellet resuspended in Tris-HCl buffer at a protein concentration of 5 mg/ml and stored in 500 μl aliquots at −80° C. until used for the binding assay.
(§2) Ligand binding assays were performed in polypropylene tubes in a total volume of 1 ml containing Tris-HCl buffer, a final concentration of 1 mg/ml BSA, and varying concentrations of drugs. Tubes contained 30 μg of membrane protein and incubation was started by the addition of 100 μl of either 0.5 nM [^3H]SR141716A or 0.2 nM [^3H]WIN 55,212-2. Experiments were carried out in triplicate at 30° C. for 90 min with non-specific binding being defined as radioligand binding in the presence of 1 μM unlabelled WIN 55,212-2. Incubations were terminated by rapid filtration with a M-24 Cell Harvester (Brandel; Gaithersburg, Md., U.S.A.) using ice-cold Tris-HCl buffer containing 0.5 mg/ml BSA. Filters (Wattman GF/B) were soaked for 2 h prior to filtering in a solution of Tris-HCl buffer containing 3 mg/ml BSA and 0.5% w/w polyethyleneimine (PEI). Filters were left to dry thoroughly before placement into scintillation vials with 5 ml of scintillation cocktail (Ultima Gold LSC-cocktail; Packard Bioscience, Meriden, Conn., U.S.A.) being added. Vials were left to stand overnight before the radioactivity was determined using a Model 1409 DSA Liquid Scintillation counter (EG&E Wallac, Gaithersburg, Md., U.S.A.).
(§3) The resulting radioligand binding curves were analyzed by nonlinear regression using the program PRISM 3.0 (GraphPad Software, San Diego, Calif.) in order to derive ligand affinity estimates for the cannabinoid receptor(s).

CB1 receptor [2] = target: T3, CB1 receptor (Rattus norvegicus, UniProt P20272); experiment: Radioligand binding assay, rat cerebellum membranes
T3 construct: the cerebellum was dissected away from the rest of the brain, weighed and homogenised; from tissue; host or cells: Sprague Dawley rat cerebellum membranes
T3 sequence (P20272 whole entry): as the sequence (P47746 whole entry) above, with D95E counted along it
Description: as §1
Sprague Dawley rats of either sex (200-300 g) were killed by gassing with 80% CO2 in O2 and decapitation, and the entire brain excised rapidly and placed in ice-cold Tris-HCl buffer (Tris 50 mM, MgCl2 3 mM, EGTA 0.2 mM, pH to 7.4 with HCl). On ice, the cerebellum was dissected away from the rest of the brain, weighed and homogenised (PT-DA 1205/2EC Polytron Aggregate; Kinematica, Luzernerstrasse Switzland) in 10 volumes of ice-cold Tris-HCl buffer. The homogenate was then made up to 20 volumes and centrifuged (Model J2-M1, Beckman, Fullerton, Calif., U.S.A.) at […] for 15 min at 4° C.). Subsequently, the supernatant was discarded, the pellet resuspended in 20 volumes of buffer and centrifuged as before. The resulting pellet was then resuspended in 20 volumes of buffer and assayed for protein content using the method of Bradford (Bradford, 1976) in a Novaspec II spectrophotometer (Pharmacia Biotech; with bovine serum albumin (BSA; Hömosafe BSA, c/o ‘ScimaR’ Templestowe, Australia) as the standard. The homogenate was then recentrifuged and the final pellet resuspended in Tris-HCl buffer at a protein concentration of 5 mg/ml and stored in 500 μl aliquots at −80° C. until used in the binding assay.
as §2, §3

Structure (SMILES) | IC50 (CB2 receptor) [nM] | IC50 (CB1 receptor [2]) [nM] | inhibition at 1 µM (CB1 receptor [1]) [%] | other results
c1ccc(-c2ccc(-c3noc(-c4cn(CCN5CCOCC5)c5ccccc45)n3)cc2)cc1 [Compound 11, 3-[3-(Biphenyl)-[1,2,4]oxadiazole-5-yl]-1-[2-(morpholin-4-yl)ethyl]-1H-indole] | > 10000 | > 10000 |  | CB1 (MVD) % inh at 1.0 μM (CB1 receptor [1]): 11%
CCOC(=O)CCn1cc(-c2nc(Cc3ccc4ccccc4c3)no2)c2ccccc21 [Compound 16, Ethyl 3-([3-(naphth-2-ylmethyl)-1,2,4-oxadiazol-5-yl]-1H-indol-1-yl)propanoate] |  |  |  | CB1 (MVD) % inh at 1.0 μM (CB1 receptor [1]): 77%
c1ccc(Cc2noc(-c3cn(CCN4CCOCC4)c4ccccc34)n2)cc1 [Compound 2, 3-(3-Benzyl-[1,2,4]-oxadiazol-5-yl)-1-[2-(morpholin-4-yl)ethyl]-1H-indole] | 1000 | 1000 | 96 | 
c1ccc(Cc2noc(-c3cn(CCN4CCCCC4)c4ccccc34)n2)cc1 [Compound 5, 3-(3-Benzyl-[1,2,4]oxadiazol-5-yl)-1-[2-(piperidin-1-yl)ethyl]-1H-indole] |  |  | 46 | 
CCCCC/C=C\C/C=C\C/C=C\C/C=C\CCCC(=O)NCCO [Anandamide, reference compound] |  |  | 84 | 
CCOC(=O)CCCCn1cc(-c2nc(Cc3ccc4ccccc4c3)no2)c2ccccc21 [Compound 14, Ethyl 5-([3-(naphth-2-ylmethyl)-[1,2,4]-oxadiazole-5-yl]-1H-indol-1-yl)pentanoate] |  |  |  | CB1 (MVD) % inh at 1.0 μM (CB1 receptor [1]): 42%
Clc1ccccc1Cc1noc(-c2cn(CCN3CCOCC3)c3ccccc23)n1 [Compound 10, 3-[3-(2-Chlorobenzyl)-[1,2,4]-oxadiazol-5-yl]-1-[2-(morpholin-4-yl)ethyl]-1H-indole] |  |  | 95 | 
CCCCCn1cc(-c2nc(Cc3ccccc3)no2)c2ccccc21 [Compound 8, 3-(3-Benzyl-[1,2,4]oxadiazol-5-yl)-1-pentyl-1H-indole] | 400 | 6 | 100 | 
c1ccc(CCc2noc(-c3cn(CCN4CCOCC4)c4ccccc34)n2)cc1 [Compound 9, 1-[2-(morpholin-4-yl)ethyl]-3-(3-phenethyl-[1,2,4]oxadiazol-5-yl)-1H-indole] | 1200 |  | 90 | 
c1ccc2cc(Cc3noc(-c4cn(CCN5CCOCC5)c5ccccc45)n3)ccc2c1 [Compound 13, 3-[3-(naphth-2-ylmethyl)-[1,2,4]-oxadiazol-5-yl]-1-[2-(morpholin-4-yl)ethyl]-1H-indole] |  |  | 54 | 
c1csc(Cc2noc(-c3cn(CCN4CCOCC4)c4ccccc34)n2)c1 [Compound 4, 1-[2-(Morpholin-4-yl)ethyl]-3-(3-thien-2-ylmethyl-[1,2,4]oxadiazol-5-yl)-1H-indole] |  | 100 | 81 | 
O=C(O)CCCCn1cc(-c2nc(Cc3ccc4ccccc4c3)no2)c2ccccc21 [Compound 15, 5-([3-(Naphth-2-ylmethyl)-[1,2,4]-oxadiazole-5-yl]-1H-indol-1-yl)pentanoic acid] |  |  |  | CB1 (MVD) % inh at 1.0 μM (CB1 receptor [1]): 54%
Brc1ccc(Cc2noc(-c3cn(CCN4CCOCC4)c4ccccc34)n2)cc1 [Compound 7, 3-[3-(4-Bromo-benzyl)-[1,2,4]oxadiazol-5-yl]-1-[2-(morpholin-4-yl)ethyl]-1H-indole] |  |  | 58 | 
COc1ccc(Cc2noc(-c3cn(CCN4CCOCC4)c4ccccc34)n2)cc1 [Compound 6, 3-[3-(4-Methoxy-benzyl)-[1,2,4]oxadiazol-5-yl]-1-[2-(morpholin-4-yl)ethyl]-1H-indole] | 2800 | 200 | 39 | 
c1ccc(-c2noc(-c3cn(CCN4CCOCC4)c4ccccc34)n2)cc1 [Compound 3, 3-(3-Phenyl-[1,2,4]-oxadiazol-5-yl)-1-[2-(morpholin-4-yl)ethyl]-1H-indole] | 1000 | 1000 | 83 | melting point: 144 to 146 °C
Cc1c(C(=O)c2cccc3ccccc23)c2cccc3c2n1[C@@H](CN1CCOCC1)CO3 [WIN-55212, WIN-55212-2, reference compound] |  |  | 100 | 
c1ccc2cc(Cc3noc(-c4cn(CCN5CCCC5)c5ccccc45)n3)ccc2c1 [Compound 12, 3-[3-(naphth-2-ylmethyl)-[1,2,4]-oxadiazol-5-yl]-1-[2-(pyrolidin-1-yl)ethyl]-1H-indole] |  |  |  | CB1 (MVD) % inh at 1.0 μM (CB1 receptor [1]): 96%
c1ccc(Cc2noc(-c3cn(CCN4CCCC4)c4ccccc34)n2)cc1 (as salt: tartrate) [Compound 1, 3-(3-Benzyl-[1,2,4]-oxadiazol-5-yl)-1-[2-(pyrrolidin-1-yl)ethyl]-1H-indole] |  |  |  | melting point: 59 to 60 °C

From US6930118B2, “3-Oxadiazol-5-yl-1-aminoalkyl-1h-indole derivatives” (Amrad Operations Pty. Ltd., priority 2001, dated 2005)
